Source: ChEMBL document CHEMBL1135141, “Inhibition of glutathione S-transferase in rat hepatocytes by a glycine-tetrazole modified S-alkyl-GSH analogue” (Bioorg Med Chem Lett, 2002)

Tests used:
Conditions in all cases: concentration not given here
[1] = molecular target: T1, Glutathione S-transferase Mu 1 (Rattus norvegicus) (UniProt P04905); assay: Tested for percent inhibition of isolated rat liver cytosolic Glutathione S-transferase 3-3 isoenzyme
T1 sequence (whole entry): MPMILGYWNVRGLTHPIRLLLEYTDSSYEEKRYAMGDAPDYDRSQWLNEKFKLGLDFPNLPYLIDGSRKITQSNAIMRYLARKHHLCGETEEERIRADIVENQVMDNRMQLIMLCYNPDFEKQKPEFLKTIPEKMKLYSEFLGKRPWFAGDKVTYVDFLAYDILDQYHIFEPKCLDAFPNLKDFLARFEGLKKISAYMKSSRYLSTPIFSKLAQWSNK

[2] = molecular target: T2, Glutathione S-transferase Mu 2 (Rattus norvegicus) (UniProt P08010); assay: Tested for percent inhibition of isolated rat liver cytosolic Glutathione S-transferase 4-4 isoenzyme
T2 sequence (whole entry): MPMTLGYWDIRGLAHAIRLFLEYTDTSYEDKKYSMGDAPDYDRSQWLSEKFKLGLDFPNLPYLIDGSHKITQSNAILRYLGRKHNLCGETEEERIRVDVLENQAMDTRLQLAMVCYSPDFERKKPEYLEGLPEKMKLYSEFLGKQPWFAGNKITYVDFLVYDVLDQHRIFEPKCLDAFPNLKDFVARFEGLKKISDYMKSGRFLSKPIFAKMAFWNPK

[3] = molecular target: Glutathione S-transferase alpha-1 (Rattus norvegicus) (UniProt P00502); assay: Tested for percent inhibition of isolated rat liver cytosolic Glutathione S-transferase 1-1 isoenzyme
[4] = molecular target: Glutathione S-transferase alpha-3 (Rattus norvegicus) (UniProt P04904); assay: Tested for percent inhibition of isolated rat liver cytosolic Glutathione S-transferase 2-2 isoenzyme
Sequence of Glutathione S-transferase alpha-3 (Rattus norvegicus) (P04904 whole entry, looked up): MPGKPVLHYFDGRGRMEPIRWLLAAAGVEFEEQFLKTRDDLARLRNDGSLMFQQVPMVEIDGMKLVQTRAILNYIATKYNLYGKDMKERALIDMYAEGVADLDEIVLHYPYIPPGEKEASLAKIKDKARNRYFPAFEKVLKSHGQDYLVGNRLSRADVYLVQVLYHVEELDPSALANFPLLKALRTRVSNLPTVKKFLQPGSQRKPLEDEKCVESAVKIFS

Sequence of Glutathione S-transferase alpha-1 (Rattus norvegicus) (P00502 whole entry, looked up): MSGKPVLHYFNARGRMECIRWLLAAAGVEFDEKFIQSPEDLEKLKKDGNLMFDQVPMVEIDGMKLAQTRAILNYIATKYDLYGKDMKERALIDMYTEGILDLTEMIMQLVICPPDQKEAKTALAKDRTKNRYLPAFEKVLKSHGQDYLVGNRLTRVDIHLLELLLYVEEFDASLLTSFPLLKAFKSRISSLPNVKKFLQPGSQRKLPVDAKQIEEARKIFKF

inhibition [1] [%] | inhibition [2] [%] | inhibition [3] [%] | inhibition [4] [%] | Structure (SMILES)
95 | 91 | 53 | 98 | CCCCCC(C)SCC(NC(=O)CCC(N)C(=O)O)C(=O)NCC(=O)O (single isomer, unassigned)
65 | 59 | 16 | 53 | CCCCCC(C)SCC(NC(=O)CCC(N)C(=O)O)C(=O)NCc1nn[nH]n1 (stereo not drawn)
